Results reported in patent US20120165319A1, “INHIBITORS OF INTERLEUKIN-1 BETA CONVERTING ENZYME” (VERTEX PHARMACEUTICALS INCORPORATED, priority 1995, published 2012).
Read-outs that look alike come from different tables or passages of the source.

What was measured:
ICE = target: T1, ICE (Homo sapiens, UniProt P29466); test: Enzyme assay with UV-visible substrate (visible ICE assay, Succinyl-Tyr-Val-Ala-Asp-pNitroanilide); type: biochemical
T1 sequence (P29466 120-297 limits assumed): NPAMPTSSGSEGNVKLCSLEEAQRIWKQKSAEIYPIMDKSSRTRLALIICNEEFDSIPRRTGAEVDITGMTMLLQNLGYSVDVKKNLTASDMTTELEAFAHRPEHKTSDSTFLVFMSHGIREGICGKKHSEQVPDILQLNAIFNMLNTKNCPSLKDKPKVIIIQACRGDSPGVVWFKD
T1 sequence (P29466 317-404 limits assumed): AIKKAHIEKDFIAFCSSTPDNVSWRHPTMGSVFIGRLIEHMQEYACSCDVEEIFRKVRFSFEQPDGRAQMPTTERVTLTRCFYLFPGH
In short: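 Human ICE was preincubated with inhibitor in DMSO and buffer for 15 min at room temperature, then succinyl-Tyr-Val-Ala-Asp-pNA was added. pNA release was followed at 405-603 nm for 20 min at 37° C. Ki and inhibition mode came from fitting rates to standard kinetic equations.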

IL-1β, human whole blood = test: Whole blood assay for IL-1β production; type: cell-based; settings: read-out: Whole human blood IC50
In short: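 Human whole blood collected on Na2EDTA was treated with serially diluted compound in saline and then stimulated with LPS at 5.0 ng/ml final, for 16-18 h at 30 °C, in duplicate or triplicate. Plasma IL-1β was measured by ELISA at 1:200 dilution.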

[1] = tested on: IL-1β, human peripheral blood mononuclear cells (PBMC); test: PBMC cell assay: IL-1β assay with human PBMC or enriched adherent mononuclear cells, LPS-stimulated; type: cell-based
In short: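 Buffy-coat human PBMC at 6×10^6 cells/ml, or adherent monocytes enriched by 1 h adherence (2.5−3.0×10^5 cells/well), are given 5–6 compound dilutions bracketing the ICE Ki (final DMSO 0.1%) plus LPS at a final 5 ng/ml. They are incubated 16–18 hr at 37 °C, 5% CO2, and supernatant mature IL-1β is measured by ELISA, with duplicate cultures and duplicate ELISAs.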

[2] = Homo sapiens, * = values obtained upon reassay
[3] = Homo sapiens, PBMC, * = values obtained upon reassay
[4] = * = values obtained upon reassay

SMILES | Ki (ICE; Table 17) | IC50 (IL-1β, human whole blood; Homo sapiens, Table 17) | Ki (ICE; Table 5) | IC50 (IL-1β, human whole blood; [2]) | IC50 (IL-1β, human whole blood; [4]) | IC50 ([1]; Homo sapiens, PBMC, Table 17) | IC50 [1, 3] | IC50 [1, 4]
O=C[C@H](CC(=O)O)NC(=O)[C@@H]1CCCN2C(=O)CC[C@H](NC(=O)c3cc(Cl)cc(Cl)c3)C(=O)N12 [Compound 214j, [3S(1S,9S)]3-(9-(3,5-Dichlorobenzoyl)amino-6,10-dioxo-1,2,3,4,7,8,9,10-octahydro-6H-pyridazino[1,2-a][1,2]diazepine-1-carboxamido)-4-oxobutanoic acid] | 4.2 nM | 6000 nM |  |  |  | 2500 nM |  | 
Cc1ccc(Cl)cc1C(=O)N[C@H]1CCC(=O)N2CCC[C@@H](C(=O)N[C@H](C=O)CC(=O)O)N2C1=O [Compound 466] |  |  | 0.8 nM | 600 nM |  |  | 1400 nM | 
Cc1c(Cl)cccc1C(=O)N[C@H]1CCC(=O)N2CCC[C@@H](C(=O)N[C@H](C=O)CC(=O)O)N2C1=O [Compound 465] |  |  | 3 nM | 800 nM |  |  | 1000 nM | 
O=C[C@H](CC(=O)O)NC(=O)[C@@H]1CCCN2C(=O)CC[C@H](NC(=O)C(=O)Nc3ccc(Cl)cc3)C(=O)N12 [Compound 500] | 25 nM | 1800 nM |  |  |  | 1800 nM |  | 
O=C[C@H](CC(=O)O)NC(=O)[C@@H]1CCCN2C(=O)CC[C@H](NC(=O)c3ccc(OCc4ccccc4)cc3)C(=O)N12 [Compound 499] |  |  | 3.5 nM | 9000 nM |  |  | 1200 nM | 800 nM
Cn1c(C(=O)N[C@H]2CCC(=O)N3CCC[C@@H](C(=O)N[C@H](C=O)CC(=O)O)N3C2=O)cc2ccccc21 [Compound 433] |  |  | 2.9 nM | 1100 nM |  |  | 1000 nM | 1100 nM
Nc1cc2ccccc2cc1C(=O)N[C@H]1CCC(=O)N2CCC[C@@H](C(=O)N[C@H](C=O)CC(=O)O)N2C1=O [Compound 440] |  |  | 2.3 nM | 2000 nM |  |  | 5000 nM | 
O=C[C@H](CC(=O)O)NC(=O)[C@@H]1CCCN2C(=O)CC[C@H](NC(=O)c3ccc(O)c(Cl)c3)C(=O)N12 [Compound 498] |  |  | 1.5 nM | 500 nM | 400 nM |  | 560 nM | 
O=C[C@H](CC(=O)O)NC(=O)[C@@H]1CCCN2C(=O)CC[C@H](NC(=O)c3ccc(NC(=O)c4ccccc4)cc3)C(=O)N12 [Compound 483] |  |  | 1.7 nM | 700 nM |  |  | 900 nM | 
CCn1nc(C)cc1C(=O)N[C@H]1CCC(=O)N2CCC[C@@H](C(=O)N[C@H](C=O)CC(=O)O)N2C1=O [Compound 422] |  |  | 50 nM | 1200 nM |  |  | 2200 nM | 
COc1ccc(C(=O)N[C@H]2CCC(=O)N3CCC[C@@H](C(=O)N[C@H](C=O)CC(=O)O)N3C2=O)cc1Cl [Compound 497] |  |  | 3.5 nM | 350 nM | 700 nM |  | 740 nM | 
O=C[C@H](CC(=O)O)NC(=O)[C@@H]1CCCN2C(=O)CC[C@H](NC(=O)c3ccc4cc(O)ccc4c3)C(=O)N12 [Compound 425] |  |  | 0.8 nM | 650 nM |  |  | 650 nM | 700 nM
O=C[C@H](CC(=O)O)NC(=O)[C@@H]1CCCN2C(=O)CC[C@H](NC(=O)c3ccc(Oc4ccccc4)cc3)C(=O)N12 [Compound 443] |  |  | 3.6 nM | 1500 nM |  |  | 2800 nM | 
O=C[C@H](CC(=O)O)NC(=O)CN1C(=O)[C@@H](NC(=O)c2ccccc2)CN(C(=O)CCc2ccccc2)c2ccccc21 [Compound 605a, (3S)-3-[(3S)-2-oxo-3-benzoylamino-5-(3-phenylpropionyl)-2,3,4,5-tetrahydro-1H-1,5-benzodiazepin-1-acetylamino-]4-oxo-butyric acid] |  |  | 90 nM | > 20000 nM |  |  | 2600 nM | 
CCC(=O)Nc1ccc(C(=O)N[C@H]2CCC(=O)N3CCC[C@@H](C(=O)N[C@H](C=O)CC(=O)O)N3C2=O)cc1 [Compound 485] |  |  | 2 nM | 900 nM |  |  | 900 nM | 
O=C[C@H](CC(=O)O)NC(=O)[C@@H]1CCCN2C(=O)CC[C@H](NC(=O)c3cc4ccccc4s3)C(=O)N12 [Compound 453] |  |  | 0.65 nM | 1900 nM | 1600 nM |  | 1300 nM | 
CN(C)c1ccc(C(=O)N[C@H]2CCC(=O)N3CCC[C@@H](C(=O)N[C@H](C=O)CC(=O)O)N3C2=O)c2ccccc12 [Compound 441] |  |  | 1 nM | 4500 nM |  |  | 2500 nM | 
Cc1c(O)cccc1C(=O)N[C@H]1CCC(=O)N2CCC[C@@H](C(=O)N[C@H](C=O)CC(=O)O)N2C1=O [Compound 476] |  |  | 7 nM | 2500 nM |  |  | 1600 nM | 

The next lines start with results.

Ki (ICE; Table 17) | IC50 (IL-1β, human whole blood; Homo sapiens, Table 17) | Ki (ICE; Table 5) | IC50 (IL-1β, human whole blood; [2]) | IC50 (IL-1β, human whole blood; [4]) | SMILES | IC50 ([1]; Homo sapiens, PBMC, Table 17) | IC50 [1, 3] | IC50 [1, 4]
5.2 nM | 2800 nM |  |  |  | CC(=O)Nc1ccc(C(=O)N[C@H]2CN(C(=O)CO)c3ccccc3N(CC(=O)N[C@H](C=O)CC(=O)O)C2=O)cc1Cl [Compound 914] | 2600 nM |  | 
15 nM | 2800 nM |  |  |  | COc1c(C)cc(C(=O)N[C@H]2CN(C(C)=O)c3ccccc3N(CC(=O)N[C@H](C=O)CC(=O)O)C2=O)cc1C [Compound 684, (3S)-3-[(3S)-2-Oxo-3-(3,5-dimethyl-4-methoxybenzoyl)amino-5-acetyl-2,3,4,5-tetrahydro-1H-1,5-benzodiazepine-1-acetylamino]-4-oxo-butyric acid] | 5000 nM |  | 
 |  | 7.2 nM | > 20000 nM |  | CC(=O)N1C[C@H](NC(=O)c2cccc3ccccc23)C(=O)N(CC(=O)N[C@H](C=O)CC(=O)O)c2ccccc21 [Compound 621] |  | 1300 nM | 
10 nM | 14000 nM |  |  |  | CC(=O)N1C[C@H](NC(=O)C(=O)c2c(C)cc(C)cc2C)C(=O)N(CC(=O)N[C@H](C=O)CC(=O)O)c2ccccc21 [Compound 709] | 2100 nM |  | 
35 nM | 1300 nM |  |  |  | Cc1cc(C)c(C(=O)C(=O)NN2CCC(=O)N3CCC[C@@H](C(=O)N[C@H](C=O)CC(=O)O)N3C2=O)c(C)c1 [Compound 1117] | 1700 nM |  | 
 |  | 55 nM | 4000 nM |  | CC(=O)N1C[C@H](NC(=O)C(=O)c2ccccc2)C(=O)N(CC(=O)N[C@H](C=O)CC(=O)O)c2ccccc21 [Compound 635] |  | 1900 nM | 3400 nM
55 nM | 9000 nM |  |  |  | COc1c(Cl)cc(C(=O)NN2CCC(=O)N3CCC[C@@H](C(=O)N[C@H](C=O)CC(=O)O)N3C2=O)cc1Cl [Compound 1125] | 2300 nM |  | 
 |  | 35 nM | > 20000 nM |  | CC(=O)N1C[C@H](NC(=O)c2ccc3cc(O)ccc3c2)C(=O)N(CC(=O)N[C@H](C=O)CC(=O)O)c2ccccc21 [Compound 622] |  | 1300 nM | 
22 nM | 2600 nM |  |  |  | O=C[C@H](CC(=O)O)NC(=O)[C@@H]1CCCN2C(=O)CCN(NC(=O)C(=O)c3c[nH]c4ccccc34)C(=O)N12 [Compound 1108] | 1400 nM |  | 
35 nM | 2900 nM |  |  |  | COCC(=O)N1C[C@H](NC(=O)C(=O)c2ccccc2)C(=O)N(CC(=O)N[C@H](C=O)CC(=O)O)c2ccccc21 [Compound 642, (3S)-3-[(3S)-2-Oxo-3-benzoylformylamino-5-methoxyacetyl-2,3,4,5-tetrahydro-1H-1,5-benzodiazepine-1-acetylamino]-4-oxo-butyric acid] | 8000 nM |  | 
18 nM | 4400 nM |  |  |  | COc1ccccc1C(=O)C(=O)NN1CCC(=O)N2CCC[C@@H](C(=O)N[C@H](C=O)CC(=O)O)N2C1=O [Compound 1111] | 6050 nM |  | 
11.5 nM | 1400 nM |  |  |  | O=C[C@H](CC(=O)O)NC(=O)CN1C(=O)[C@@H](NC(=O)c2ccc(O)cc2)CN(C(=O)CO)c2ccccc21 [Compound 691b, (3S)-3-[(3S)-2-Oxo-3-(4-hydroxybenzoyl)amino-5-hydroxyacetyl-2,3,4,5-tetrahydro-1H-1,5-benzodiazepine-1-acetylamino]-4-oxo-butyric acid] | 1900 nM |  | 
9 nM | 5000 nM |  |  |  | O=C[C@H](CC(=O)O)NC(=O)CN1C(=O)[C@@H](NC(=O)C(=O)c2ccccc2)CN(C(=O)CO)c2ccccc21 [Compound 681, (3S)-3-[(3S)-2-Oxo-3-benzoylformylamino-5-(2-hydroxy)acetyl-2,3,4,5-tetrahydro-1H-1,5-benzodiazepine-1-acetylamino]-4-oxo-butyric acid] | 3000 nM |  | 
5 nM | 3200 nM |  |  |  | COc1ccccc1C(=O)C(=O)N[C@H]1CN(C(C)=O)c2ccccc2N(CC(=O)N[C@H](C=O)CC(=O)O)C1=O [Compound 705] | 2300 nM |  | 
45 nM | 20000 nM |  |  |  | CC(=O)N1C[C@H](NC(=O)C(=O)c2ccc3c(c2)OCO3)C(=O)N(CC(=O)N[C@H](C=O)CC(=O)O)c2ccccc21 [Compound 702] | > 5000 nM |  | 
